Measured values as given in article PMC11623267, “Inhibitors of malaria parasite cyclic nucleotide phosphodiesterases block asexual blood-stage development and mosquito transmission” (Science Advances, 2024).
Read-outs that look alike come from different tables or passages of the source.

Legend:
[1] = tested on: P. falciparum stage IV/V gametocytes; test: LDH-based gametocyte viability assay; type: cell-based, Plasmodium falciparum; details: stage IV to V gametocytes
Experimental: The pLDH assay was performed on late (>95% stage IV/V) gametocytes. Compound dilutions were placed in triplicate in 96-well plates in a final volume of 100 μl per well. DHA and MMV048 were used as positive drug controls. The gametocyte cultures (100 μl per well) were added to the 96-well plates to achieve a final gametocytemia and hematocrit of 2 and 1%, respectively, in a total incubation volume of 200 μl. Plates were incubated at 37°C for 72 hours, followed by the replacement of spent medium with drug-free culture medium (75% medium change) ([54], [55]). Plates were then incubated for a further 72 hours before assessing viability by measuring pLDH activity. Gametocyte viability was determined spectrophotometrically by measuring the activity of pLDH, according to a modified version of a published protocol ([56]). Briefly, 100 μl of Malstat reagent [0.21% (v/v) Triton X-100, 222 mM L-(+)-lactic acid, 54.5 mM tris, 0.166 mM APAD (Sigma-Aldrich, A5251), adjusted to pH 9 with 1 M NaOH] was transferred into a clean 96-well plate. A fixed volume of 20 μl of parasite suspension per well was added to the Malstat plate, followed by the addition of 25 μl of PES/NBT (0.239 mM phenazine ethosulfate and 1.96 mM nitro blue tetrazolium chloride). Absorbance was measured with a Multiskan Ascent 354 multiplate scanner (Thermo LabSystems, Finland) at 620 nm.

[2] = tested on: P. falciparum stage V gametocytes (male gamete formation); test: Exflagellation (male gamete formation) inhibition assay; type: cell-based, Plasmodium falciparum; details: 2 μM, 48 hours
Experimental: The exflagellation inhibition assay was performed by capturing movement of exflagellation centers over time by video microscopy [adapted from a reported protocol ([52])]. For this carry-over format, mature stage V gametocytes were treated with 2 μM of each compound for 48 hours before induction of exflagellation in the presence of compound. To evaluate compound dose response, gametocytes were treated similarly at a set of concentrations representing a fourfold serial dilution. Mature gametocyte cultures (>95% stage V; 500 μl) were centrifuged at 3500 rpm for 30 s, and the pellet was resuspended in 30 μl of ookinete medium [RPMI 1640 medium containing L-glutamine (Sigma-Aldrich, R6504), gentamycin (0.024 mg/ml; HyClone, SV30080.01), 202 μM hypoxanthine (Sigma-Aldrich, H9636), 25 mM Hepes (Sigma-Aldrich, H4034), 0.2% glucose (Sigma-Aldrich, G6152), and 0.5% (w/v) AlbuMAX II (Invitrogen, Paisley, UK), supplemented with 100 μM XA and 20% human serum]. The activated culture (10 μl) was introduced into a Neubauer chamber and placed on the microscope platform to settle homogenously. Time was noted as time zero (T0), and the chamber was incubated at room temperature. Movement was recorded by video microscopy using a Carl Zeiss NT 6V/10W Stab microscope, fitted with a MicroCapture camera at 10× magnification, and then quantified by a semiautomated method, a modification of the method described previously ([53]). A series of 15 videos of 8 to 10 s each were captured at random locations between 15 and 22.5 min after incubation. Each video was analyzed using Icy bioimage analysis software to quantify the number of exflagellating centers. Compound IC50 values were determined with nonlinear curve fitting (GraphPad Prism 6), normalized to maximum and minimum inhibition.

[3] = tested on: P. falciparum stage V gametocytes (female gamete formation); test: Female gamete formation inhibition assay; type: cell-based, Plasmodium falciparum; details: 2 μM, 48 hours
Experimental: Mature gametocytes (>95% stage V) were treated with compounds (2 μM) for 48 hours before stimulating female gamete formation. To evaluate compound dose response, gametocytes were treated similarly at set concentrations representing a fourfold serial dilution. Female gamete activation was induced by both a temperature drop and the addition of 100 μM XA. Monoclonal anti-Pfs25 antibody (BEI Resources, catalog number MRA-28; 1:1000 dilution) conjugated to fluorescein isothiocyanate was used to detect female gametes. Image acquisition was performed using a Zeiss Axio Lab.A1 epifluorescence microscope with a 100/1.4 numerical aperture oil immersion objective and a Zeiss Axiocam 202 mono digital camera. Using a 100× objective, 30 images were taken per sample and analyzed manually. The number, size, roundness, and intensity of fluorescence of activated female gametocytes were evaluated. Compound IC50 values were determined with nonlinear curve fitting (GraphPad Prism 6), normalized to maximum and minimum inhibition.

HepG2 cells = test: HepG2 cytotoxicity; type: cell-based
Source text: Table 1. Key activity data for the three main chemical subseries against ABS parasites, parasite fractions, and HepG2 cells. ND, not determined; ×/÷ is the geometric mean with geometric SD. | column: HepG2 EC50 (nM) (selectivity index)

[4] = tested on: P. falciparum (clone 3D7); test: Parasite reduction ratio (PRR) assay; type: cell-based, Plasmodium falciparum; details: for Lag phase / Log PRR / PCT99.9% (hours taken to kill 99.9% of the parasites): 10× EC50, 3D7; for Slope: 10× EC50, 3D7 killing profile; for Killing profile: 10× EC50, faster than pyrimethamine, slower than chloroquine
Experimental: The in vitro killing profile of compounds was determined by monitoring the ability of parasites to recover following treatment with a compound of interest using a previously reported approach ([50]), which allowed calculation of the PRR ([51]). […] To quantify the number of viable parasites following treatment, four independent sets of threefold serial dilutions were performed on each sample, which were assayed for the presence or absence of parasites after 28 days using the LDH assay, and the number of viable parasites was determined by the number of wells showing growth. PRR and PCT99.9% were calculated as previously reported ([50]).

P. falciparum Dd2-B2 = test: 72-hour flow cytometry EC50 assay, Dd2-B2 parental line; type: cell-based, Plasmodium falciparum; details: read-out: EC50 Dd2-B2 parental line
Experimental: (§1) Stocks of SAL-0010003 (5-benzyl), SAL-0010355 (5-aryl), and SAL-0010419 (2-alkyl) were made at 10 and 1 mM in DMSO. Aliquots in use were stored at −20°C, and long-term storage was at −80°C. All in vitro studies were done such that the final DMSO concentration was <0.5%. P. falciparum ABS parasites were cultured at 3% hematocrit in human O+ RBCs in RPMI 1640 medium, supplemented with 25 mM Hepes, 50 mg L-hypoxanthine, 2 mM L-glutamine, 0.225% sodium bicarbonate, 0.5% (w/v) AlbuMAX II (Invitrogen) and gentamycin (10 μg/ml), in modular incubator chambers (Billups-Rothenberg) at 5% O2, 5% CO2, and 90% N2 at 37°C. Dd2-B2 (obtained from T. Wellems, National Institute of Allergy and Infectious Diseases, National Institutes of Health) is a genetically homogenous line that was cloned from Dd2 by limiting dilution. To define the EC50 and EC90 values of ABS parasites, Dd2-B2 ring-stage cultures at 0.2% parasitemia and 1% hematocrit were exposed for 72 hours to a range of 10 drug concentrations that were twofold serially diluted in duplicates along with drug-free controls. Parasite survival was assessed by flow cytometry on an iQue flow cytometer (Sartorius) using SYBR Green and MitoTracker Deep Red FM (Life Technologies) as nuclear stain and vital dyes, respectively. After determination of the EC50 and EC90 values for the three compounds with the P. falciparum Dd2-B2 clone, one single-step selection was set up using 2 × 10^5 parasites in each well of a 96-well plate at a starting concentration of 3× EC90. Parasites were cleared from the culture rapidly, and cultures were screened three times weekly by flow cytometry and counted as positive for recrudescence when the overall parasitemia reached 0.3% and the parasites were visible on a blood smear. DNA was extracted from recrudescent lines using a QIAGEN QIAamp Blood Mini Kit, and libraries were prepared with the Illumina DNA Prep kit for whole-genome sequencing on the Illumina MiSeq using a V3 2 × 300–base pair flow cell.

[5] = tested on: P. falciparum Dd2-B2 lines selected under drug pressure; test: 72-hour flow cytometry EC50 assay, lines selected under drug pressure; type: cell-based, Plasmodium falciparum; details: for Mean fold change in EC50: selected lines vs Dd2-B2 parental line, ±SD; for EC50 shift, line selected with the same NPD compound, Well 1 / EC50 shift, line selected with the same NPD compound, Well 2 / EC50 shift, line selected with the same NPD compound, Well 3 / EC50 shift, line selected with the same NPD compound, Well 4: vs Dd2-B2
Experimental: Three examples of an additional compound series developed independently [NPD-2958, NPD-3518 ([31]), and NPD-3738; fig.
as §1

[6] = tested on: P. falciparum clinical isolates from Porto Velho, Brazil; test: Ex vivo schizont maturation assay, Brazilian clinical isolates; type: cell-based, Plasmodium falciparum; details: Plasmodium falciparum
Experimental: Only monoinfected patients with P. falciparum with parasitemia between 2000 and 80,000 parasites/μl and with at least 70% of ring-stage parasites were recruited. Patients who had used an antimalarial in the previous month and/or presented with symptoms of severe malaria were excluded from the study. The study cohort comprised 24 patients living in this highly endemic area. A peripheral venous blood sample (5 ml) was collected from each individual by venipuncture in heparin-containing tubes and immediately used in the ex vivo drug susceptibility assay using preprepared plates containing diluted antimalarial compounds. […] Last, 20 μl of each dilution was transferred into the ex vivo assay plate and diluted 10-fold into the final assay medium containing parasites. For the infected blood preparation, 5 ml of whole blood was centrifuged at 800g for 10 min, and the plasma and buffy coat were removed. […] Control assays on a 3D7 laboratory isolate were performed with medium supplemented with human serum (20%). The iRBC (180 μl per well) were distributed in the predosed drug plate. […] Control wells containing drug-free iRBCs were cultured with complete medium. The parasite-drug incubation was terminated when 40% of the ring stages reached the schizont stage (at least three distinct nuclei per parasite) in the drug-free control wells. Thick blood films were then made from each well, dried, stained with 5% Giemsa solution for 30 min, and examined microscopically. The number of schizonts per 200 asexual-stage parasites was determined for each drug concentration and then normalized by comparing with the schizont number in the drug-free control wells [considered as 100% ([64])]. The half-maximal drug inhibitory response (EC50) was estimated by curve fitting using software from the OriginLab Corporation, Northampton, MA, USA and comparing with parasite growth in the drug-free controls.

[7] = read-out: EC50, line selected with the same NPD compound, Well 1
[8] = read-out: EC50, line selected with the same NPD compound, Well 2
[9] = read-out: EC50, line selected with the same NPD compound, Well 3
[10] = read-out: EC50, line selected with the same NPD compound, Well 4

## CC(C)COc1ccc(S(=O)(=O)N(C)C)cc1-c1nc2c(C(C)(C)C)n[nH]c2c(=O)[nH]1 [SAL-0010284]
[1]
  % inhibition gametocyte viability at 15 μM: 100 ± 0%
[2]
  % inhibition of exflagellation at 2 μM: 60.5 ± 18.0%
[3]
  % inhibition of female gamete formation at 2 μM: 58.6 ± 2.1%

## CNC(=O)c1cnc(OCC(C)C)c(-c2nc3c(C(C)C)n[nH]c3c(=O)[nH]2)c1 [SAL-0010301]
HepG2 cells
  EC50: > 25000 nM
[4]
  Lag phase: 0 h
  Log PRR: 2.55
  PCT99.9% (hours taken to kill 99.9% of the parasites): 55.1 h
  Slope: −0.0532 ± 0.0042
  Killing profile: fast/moderate killing profile

## CC(C)COc1ccc(S(=O)(=O)N(C)C)cc1-c1nc2c(C3CCC3)n[nH]c2c(=O)[nH]1 [SAL-0010283]
[1]
  % inhibition gametocyte viability at 15 μM: 100 ± 0%
[2]
  % inhibition of exflagellation at 2 μM: 72.1 ± 26.0%
[3]
  % inhibition of female gamete formation at 2 μM: 44.8 ± 2.5%

## CCc1c2nc(-c3cc(C(=O)NC)cnc3OCC(C)C)[nH]c(=O)c2nn1CCOC [SAL-0010031]
HepG2 cells
  EC50: > 25000 nM
[4]
  Lag phase: 0 h
  Log PRR: 2.78
  PCT99.9% (hours taken to kill 99.9% of the parasites): 51.2 h
  Slope: −0.0579 ± 0.0058
  Killing profile: fast/moderate killing profile

## O=C1C(O)=C([C@H]2CC[C@H](c3ccc(Cl)cc3)CC2)C(=O)c2ccccc21 [Atovaquone, reference compound]
[4]
  Lag phase: 48 h
  Log PRR: 2.26
  PCT99.9% (hours taken to kill 99.9% of the parasites): 73.0 h
  Slope: −0.0470 ± 0.0042

## CC(C)c1n[nH]c2c(=O)[nH]c(Cc3ccccc3Cl)nc12 [NPD-2958]
P. falciparum Dd2-B2
  EC50: 320 nM
[5]; [7]
  EC50: 2570 nM
[5]; [8]
  EC50: 3370 nM
[5]; [9]
  EC50: 2470 nM
[5]; [10]
  EC50: 2440 nM
[5]
  Mean fold change in EC50: 8.5 ± 1.4 fold
  EC50 shift, line selected with the same NPD compound, Well 1: 8.1 fold
  EC50 shift, line selected with the same NPD compound, Well 2: 10.5 fold
  EC50 shift, line selected with the same NPD compound, Well 3: 7.7 fold
  EC50 shift, line selected with the same NPD compound, Well 4: 7.6 fold

## CC(C)c1n[nH]c2c(=O)[nH]c(C3CCCCC3)nc12 [NPD-3518]
P. falciparum Dd2-B2
  EC50: 203 nM
[5]; [7]
  EC50: 2630 nM
[5]; [8]
  EC50: 2290 nM
[5]; [9]
  EC50: 2530 nM
[5]; [10]
  EC50: 2510 nM
[5]
  Mean fold change in EC50: 12.2 ± 0.7 fold
  EC50 shift, line selected with the same NPD compound, Well 1: 12.9 fold
  EC50 shift, line selected with the same NPD compound, Well 2: 11.2 fold
  EC50 shift, line selected with the same NPD compound, Well 3: 12.4 fold
  EC50 shift, line selected with the same NPD compound, Well 4: 12.4 fold

## CC(C)c1n[nH]c2c(=O)[nH]c(C3CCOc4ccc(F)cc43)nc12 (centres unmarked) [SAL-0010007]
[1]
  % inhibition gametocyte viability at 15 μM: 100 ± 0%
[2]
  % inhibition of exflagellation at 2 μM: 100 ± 0%
[3]
  % inhibition of female gamete formation at 2 μM: 50.6 ± 1.9%

## CC(C)COc1ccc(S(=O)(=O)N(C)C)cc1-c1nc2c(C(C)C)n[nH]c2c(=O)[nH]1 [SAL-0010243]
[1]
  % inhibition gametocyte viability at 15 μM: 100 ± 0%
[2]
  % inhibition of exflagellation at 2 μM: 95.4 ± 12.3%
[3]
  % inhibition of female gamete formation at 2 μM: 80.5 ± 0.9%

## C[C@H]1[C@H](OC(=O)CCC(=O)O)O[C@@H]2O[C@@]3(C)CC[C@H]4[C@H](C)CC[C@@H]1[C@@]24OO3 [Artesunate, reference compound]
[4]
  Lag phase: 0 h
  Log PRR: >8
  PCT99.9% (hours taken to kill 99.9% of the parasites): <24 h
[6]; read-out: EC50 range, clinical isolates
  EC50: 0.1 to 9 nM
[6]; read-out: Median EC50, clinical isolates
  EC50: 0.6 nM

## CCCCOc1ncc(Br)cc1-c1nc2c(C(C)C)n[nH]c2c(=O)[nH]1 [SAL-0010203]
[1]
  % inhibition gametocyte viability at 15 μM: 0%
[2]
  % inhibition of exflagellation at 2 μM: 76.7 ± 13.6%
[3]
  % inhibition of female gamete formation at 2 μM: 44.8 ± 1.7%
